# Results as given in US9351989B2, “Substituted purine nucleosides, phosphoroamidate and phosphorodiamidate derivatives for treatment of viral infections” (INHIBITEX, INC., priority 2010, dated 2016).
# Experiments:
# [1] = Cytotoxicity assay (CellTiter-Glo); assay type: cell-based; settings: human, toxicity to the cells, 72 h incubation, CellTiter-Glo cell viability
# Experimental: (§1) Further to the above Examples, representative compounds, prepared according to the examples were tested for potency in an HCV replicon assay (Genotype 1b) for activity against the virus (EC50) and toxicity to the cells (CC50).
# (§2) A luciferase-reporter genotype 1b subgenomic replicon cell line, and a genotype 1a full-length replicon cell line were obtained from Apath, LLC, Brooklyn, N.Y.: All cell lines were passaged twice a week by splitting 4 or 6 fold. Cells were maintained in DMEM-high glucose medium (HyClone, Logan, Utah) supplemented with 9% FBS (HyClone), 2 mM glutamine (Invitrogen, Carlsbad, Calif.), 100 U/mL PenStrep (Invitrogen). Media also contained 0.25 mg/mL of the antibiotic G-418 to maintain stable expression of the replicon (Invitrogen). Incubation was performed at 37° C. in 5% CO2 atmosphere. Replicon cell lines were used until they accumulated 15-to-18 passages, after which cells were restarted from the frozen stock. Seeding cell counts were routinely determined using an automatic Cedex HiRes cell counter (Flownomics Analytical Instruments, Madison, Wis.) or manually using INCYTO C—Chip™ Disposable Hemacytometers (Fisher Scientific, Pittsburgh, Pa.).
# The cell cytotoxicity assay data was obtained as described below:
# Cells were seeded into 96-well plates at a density of 2×10^4 cells per well. 24 h after cell plating, 11 serial 2× compound dilutions, starting with 100 μM, were applied to the testing plates (3 repeats per compound dilution). Each testing plate was run with a “no-compound” control. Incubation with compounds was continued at 37° C. in a CO2 incubator for 72 h. To determine cell viability, the CellTiter-Glo® assay (Promega, Madison, Wis.) was performed according to the manufacturer's protocol. The compound concentration resulting in 50% luminescent signal was reported as the CC50 concentration.
# [2] = test system: HCV replicon (Genotype 1b); test: Luciferase genotype 1b replicon potency assay; assay type: cell-based; settings: Hepatitis C virus, Huh-7; luciferase-reporter genotype 1b subgenomic replicon cell line (Huh7); Renilla luciferase reporter activity
# Experimental: as §1
# Huh7 Replicon Cell Lines and Cell Culture Conditions:
# as §2
# The anti-HCV assays were done accordingly:
# Luciferase Genotype 1b Replicon Potency Assay.
# Replicon cells were seeded into white 96-well plates (Nunc/VWR) at a density of 2×10^4 cells/well in medium without G-418. A Stacker Multidrop Liquid Dispenser (MTX Lab Systems, Vienna, Va.) was employed to ensure uniform and fast cell seeding into multiple plates. 18-24 h after cell plating, inhibitors were added and cells were incubated for additional 24, 48, or 72 h (as indicated). Compounds were tested in triplicates and quadruplicates at 3× or 4× serial dilutions over a range of 0.0001-to-10 μM concentrations. HCV replication was monitored by Renilla luciferase reporter activity assay using Renilla luciferase reporter (Promega, Madison, Wis.) and a Veritas Luminometer (Turner Biosystems, Sunnyvale, Calif.). 50% and 90% inhibitory concentration (IC50 and IC90) values were calculated as the concentration of compound that results correspondingly in 50% and 90% decreases in the reporter expression as compared to untreated cells. The values were determined by non-linear regression (four-parameter sigmoidal curve fitting) analysis.
# [3] = Huh7 HCV genotype 1b replicon cells
Structure (SMILES),"CC50 at 72 h [1, 3] [µM]",IC50 [2] [µM],CC50 at 72 h [1] [µM]
"COc1nc(N)nc2c1nc(I)n2[C@@H]1O[C@H](COP(=O)(N[C@@H](C)C(=O)OCC(C)(C)C)N[C@@H](C)C(=O)OCC(C)(C)C)[C@@H](O)[C@@]1(C)O [Example 23, (2S,2′S)-Neopentyl 2,2′-((((2R,3R,4R,5R)-5-(2-Amino-8-iodo-6-methoxy-9H-purin-9-yl)-3,4-dihydroxy-4-methyltetrahydrofuran-2-yl)methoxy)phosphoryl)bis(azanediyl)dipropanoate]",53,0.11,
"COc1nc(N)nc2c1nc(I)n2[C@@H]1O[C@H](COP(=O)(N[C@@H](CCSC)C(=O)OCc2ccccc2)Oc2cccc3ccccc23)[C@@H](O)[C@@]1(C)O (stereo partly drawn) [Example 19, (2S)-Benzyl 2-((((2R,3R,4R,5R)-5-(2-Amino-8-iodo-6-methoxy-9H-purin-9-yl)-3,4-dihydroxy-4-methyltetrahydrofuran-2-yl)methoxy)(naphthalen-1-yloxy)phosphorylamino)-4-(methylthio)butanoate]",,0.034,29
"COc1nc(N)nc2c1nc(I)n2[C@@H]1O[C@H](COP(=O)(N[C@H](C(=O)OCc2ccccc2)C(C)C)Oc2cccc3ccccc23)[C@@H](O)[C@@]1(C)O (stereo partly drawn) [Example 20, (2S)-Benzyl 2-((((2R,3R,4R,5R)-5-(2-Amino-8-iodo-6-methoxy-9H-purin-9-yl)-3,4-dihydroxy-4-methyltetrahydrofuran-2-yl)methoxy)(naphthalen-1-yloxy)phosphorylamino)-3-methylbutanoate]",,0.14,25
"COc1nc(N)nc2c1nc(Cl)n2[C@@H]1O[C@H](COP(=O)(N[C@@H](C)C(=O)OCC(C)(C)C)N[C@@H](C)C(=O)OCC(C)(C)C)[C@@H](O)[C@@]1(C)O [Example 25, (2S,2′S)-Neopentyl 2,2′-((((2R,3R,4R,5R)-5-(2-Amino-8-chloro-6-methoxy-9H-purin-9-yl)-3,4-dihydroxy-4-methyltetrahydrofuran-2-yl)methoxy)phosphoryl)bis(azanediyl)dipropanoate]",> 100,10,
"COc1nc(N)nc2c1nc(I)n2[C@@H]1O[C@H](COP(=O)(N[C@@H](C)C(=O)OC2CCC2)Oc2cccc3ccccc23)[C@@H](O)[C@@]1(C)O (stereo partly drawn) [Example 15, (2S)-Cyclobutyl 2-((((2R,3R,4R,5R)-5-(2-Amino-8-iodo-6-methoxy-9H-purin-9-yl)-3,4-dihydroxy-4-methyltetrahydrofuran-2-yl)methoxy)(naphthalen-1-yloxy)phosphorylamino)propanoate]",,0.01,6.8
"COc1nc(N)nc2c1nc(I)n2[C@@H]1O[C@H](CO)[C@@H](O)[C@@]1(C)O [Example 3, (2R,3R,4R,5R)-2-(2-Amino-8-iodo-6-methoxy-9H-purin-9-yl)-5-(hydroxymethyl)-3-methyltetrahydrofuran-3,4-diol]",> 100,6.1,
